In US6303317A, “Peptide probes and methods for making the same” (The Regents of the University of California, priority 1998, dated 2001):
Where no end group is shown, it is not given here.

Tested on: APC protein
Test: Precipitation of APC from human colon cancer cell line lysates with biotinylated probe and streptavidin particles
Type: binding
Conditions: Western blot with APC antibody
Method: Precipitation experiments were carried out in order to determine whether the anti-APCp1 polypeptide probe was capable of detecting the low in vivo levels of APC which are typically present in normal and tumor cells. FIG. 7 is a schematic representation of the strategy used. Briefly, cell lines which produce a normal (i.e., full length human APC) and mutant (i.e., truncated human APC) were lysed, and the lysate combined with either biotinylated […] or biotinylated anti-APC monoclonal antibody. Molecules bound to the biotinylated probes were collected by binding to streptavidin, and the bound molecules released from the beads followed by SDS-PAGE, blotting of the gels, and detection with a biotinylated APC antibody. […] was detected on X-ray film. These steps are elaborated in more detail as follows.
Cells were harvested at 90-100% confluency. Cells were washed twice with ice-cold Dulbecco's phosphate buffered saline (Gibco BRL) containing magnesium chloride and calcium chloride, scraped into 15 mL ice cold D-PBS and pelleted in a Beckman J-6 centrifuge for 5 minutes at 4° C. The cell pellet was resuspended in 1 mL ice-cold phosphate buffer, pH 8, containing 0.2% NP-40, 400 μg/mL of Pefabloc SC (Boehringer Mannheim) and 10 μg/mL each of leupeptin, pepstatin, and aprotinin. […]

Sequence of APC protein (P25054 2-55 limits assumed): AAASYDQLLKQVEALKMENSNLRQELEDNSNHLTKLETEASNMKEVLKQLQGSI

biotinylated-anti-APCp1: N-terminally biotinylated anti-APCp1 with Met, an additional Leu8Val mutation and Glu-Asp-Glu at the C-terminus (MAAKGDQVKKEVEALEYENSNLRKKLEDHKKKLTKLKTEISNAKKMLKQLYASIEDE; not fully specified (N-terminus); also: biotin attached via a long spacer arm)
binding to / precipitation of wild-type and mutant APC at endogenous cell concentrations: precipitated truncation mutants and full-length APC at endogenous cell concentrations
